Assay: relative permittivity at zero frequency (dimensionless)
Conditions: Parallel plate capacitor

COC [dimethyl ether]
Conditions	relative permittivity at zero frequency
303.7 K, 180 kPa, Gas	1.016
303.7 K, 320 kPa, Gas	1.025
303.7 K, 440 kPa, Gas	1.032
303.7 K, 460 kPa, Gas	1.034
303.7 K, 500 kPa, Gas	1.037
303.7 K, 530 kPa, Gas	1.039
303.7 K, 660 kPa, Gas	1.084
303.7 K, 6300 kPa, Liquid	5.34
303.7 K, 8000 kPa, Liquid	5.37
303.7 K, 10200 kPa, Liquid	5.41
303.7 K, 12200 kPa, Liquid	5.44
303.7 K, 14200 kPa, Liquid	5.47
303.7 K, 16300 kPa, Liquid	5.5
303.7 K, 17600 kPa, Liquid	5.52
303.7 K, 20200 kPa, Liquid	5.56
303.7 K, 22400 kPa, Liquid	5.59
303.7 K, 24200 kPa, Liquid	5.62
303.7 K, 25900 kPa, Liquid	5.64
303.7 K, 27500 kPa, Liquid	5.66
313.3 K, 80 kPa, Gas	1.011
313.3 K, 150 kPa, Gas	1.015
313.3 K, 460 kPa, Gas	1.034
313.3 K, 510 kPa, Gas	1.037
313.3 K, 560 kPa, Gas	1.041
313.3 K, 770 kPa, Gas	1.057
313.3 K, 870 kPa, Gas	1.142
313.3 K, 2300 kPa, Liquid	5
313.3 K, 4400 kPa, Liquid	5.05
313.3 K, 6300 kPa, Liquid	5.1
313.3 K, 8300 kPa, Liquid	5.14
313.3 K, 10200 kPa, Liquid	5.16
313.3 K, 12200 kPa, Liquid	5.2
313.3 K, 14300 kPa, Liquid	5.24
313.3 K, 16300 kPa, Liquid	5.27
313.3 K, 18000 kPa, Liquid	5.3
313.3 K, 20400 kPa, Liquid	5.33
313.3 K, 22000 kPa, Liquid	5.35
313.3 K, 24300 kPa, Liquid	5.39
313.3 K, 26100 kPa, Liquid	5.41
313.3 K, 28200 kPa, Liquid	5.44
313.3 K, 29600 kPa, Liquid	5.46
323 K, 50 kPa, Gas	1.01
323 K, 100 kPa, Gas	1.012
323 K, 240 kPa, Gas	1.02
323 K, 450 kPa, Gas	1.033
323 K, 530 kPa, Gas	1.038
323 K, 700 kPa, Gas	1.049
323 K, 1080 kPa, Gas	1.118
323 K, 1300 kPa, Liquid	4.72
323 K, 2200 kPa, Liquid	4.74
323 K, 4200 kPa, Liquid	4.8
323 K, 6200 kPa, Liquid	4.85
323 K, 8200 kPa, Liquid	4.89
323 K, 10400 kPa, Liquid	4.93
323 K, 12400 kPa, Liquid	4.97
323 K, 14200 kPa, Liquid	5.01
323 K, 16400 kPa, Liquid	5.04
323 K, 18300 kPa, Liquid	5.07
323 K, 19800 kPa, Liquid	5.1
323 K, 22000 kPa, Liquid	5.13
323 K, 24000 kPa, Liquid	5.17
323 K, 26300 kPa, Liquid	5.2
323 K, 27900 kPa, Liquid	5.23
323 K, 29400 kPa, Liquid	5.25
323 K, 31200 kPa, Liquid	5.27
333.4 K, 430 kPa, Gas	1.03
333.4 K, 460 kPa, Gas	1.031
333.4 K, 540 kPa, Gas	1.036
333.4 K, 710 kPa, Gas	1.047
333.4 K, 850 kPa, Gas	1.057
333.4 K, 1050 kPa, Gas	1.071
333.4 K, 1380 kPa, Gas	1.122
333.4 K, 2200 kPa, Liquid	4.46
333.4 K, 4300 kPa, Liquid	4.52
333.4 K, 6400 kPa, Liquid	4.58
333.4 K, 8300 kPa, Liquid	4.62
333.4 K, 10200 kPa, Liquid	4.67
333.4 K, 12200 kPa, Liquid	4.71
333.4 K, 14000 kPa, Liquid	4.74
333.4 K, 15800 kPa, Liquid	4.78
333.4 K, 17200 kPa, Liquid	4.81
333.4 K, 22000 kPa, Liquid	4.89
333.4 K, 23800 kPa, Liquid	4.92
333.4 K, 25800 kPa, Liquid	4.95
333.4 K, 27600 kPa, Liquid	4.97
333.4 K, 29400 kPa, Liquid	4.99
343.2 K, 60 kPa, Gas	1.01
343.2 K, 120 kPa, Gas	1.013
343.2 K, 220 kPa, Gas	1.018
343.2 K, 390 kPa, Gas	1.027
343.2 K, 430 kPa, Gas	1.029
343.2 K, 490 kPa, Gas	1.032
343.2 K, 550 kPa, Gas	1.035
343.2 K, 610 kPa, Gas	1.039
343.2 K, 740 kPa, Gas	1.044
343.2 K, 930 kPa, Gas	1.059
343.2 K, 1090 kPa, Gas	1.069
343.2 K, 1240 kPa, Gas	1.08
343.2 K, 1550 kPa, Gas	1.106
343.2 K, 1730 kPa, Gas	1.166
343.2 K, 2600 kPa, Liquid	4.21
343.2 K, 4000 kPa, Liquid	4.25
343.2 K, 6000 kPa, Liquid	4.32
343.2 K, 8200 kPa, Liquid	4.38
343.2 K, 10200 kPa, Liquid	4.43
343.2 K, 12200 kPa, Liquid	4.48
343.2 K, 14400 kPa, Liquid	4.52
343.2 K, 16300 kPa, Liquid	4.56
343.2 K, 18000 kPa, Liquid	4.59
343.2 K, 20200 kPa, Liquid	4.64
343.2 K, 21900 kPa, Liquid	4.67
343.2 K, 23400 kPa, Liquid	4.69
343.2 K, 27700 kPa, Liquid	4.76
343.2 K, 30400 kPa, Liquid	4.8
